The experiment concerns the target T1, GPR103 Y194^ECL2A (Homo sapiens, UniProt Q96P65, Y194A).
T1 construct: we used human full-length QRFPR-encoding plasmids; expressed in transfected cells; host or cells: HEK293 cells, pCAGGS vector
T1 sequence (Q96P65 1-431 Y194A): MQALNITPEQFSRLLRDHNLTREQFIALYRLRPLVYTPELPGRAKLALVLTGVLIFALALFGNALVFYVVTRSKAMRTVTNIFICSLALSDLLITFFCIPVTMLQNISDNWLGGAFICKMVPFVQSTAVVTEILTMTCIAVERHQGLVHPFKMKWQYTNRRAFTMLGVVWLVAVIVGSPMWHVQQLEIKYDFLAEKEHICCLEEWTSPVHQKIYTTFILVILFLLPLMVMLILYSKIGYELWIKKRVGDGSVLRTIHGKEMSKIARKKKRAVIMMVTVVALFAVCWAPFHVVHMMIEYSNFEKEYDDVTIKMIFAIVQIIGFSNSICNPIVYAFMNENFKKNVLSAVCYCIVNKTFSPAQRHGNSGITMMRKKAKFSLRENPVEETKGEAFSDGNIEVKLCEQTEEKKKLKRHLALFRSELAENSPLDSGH
The experiment can be described thus: TGFα shedding assay; Exp. level WT (1:10). It counts as cell-based. As to the method: For the TGFα shedding assay and the flow cytometry analysis, we used human full-length QRFPR-encoding plasmids. Specifically, GPR103 was N-terminally modified with an HA signal sequence followed by a FLAG epitope and then a flexible linker ([…]; the FLAG epitope is underlined) and inserted into the pCAGGS vector. Plasmid encoding GPR103 mutants were generated using Quickchange Site-Directed Mutagensis kit (Agilent).
The TGFα shedding assay was performed as described previously with minor modifications. Plasmid transfection was performed in a 6-well plate with a mixture of 500 ng (per well in a 6-well plate) AP-TGFα-encoding plasmid and 200 ng GPR103-encoding plasmid. After 1-day culture, the transfected cells were harvested by trypsinization, pelleted by centrifugation at 190 × g for 5 min, and washed once with 5 mM HEPES (pH 7.4)-containing Hank’s Balanced Salt Solution (HBSS). After centrifugation, the cells were resuspended in 8 mL of the HEPES-containing HBSS. The cell suspension was seeded in a 96-well culture plate (cell plate) at a volume of 90 μL (per well hereafter) and incubated in a 37 °C incubator with 5% CO2 for 30 min. […] After spinning the cell plates at 190 × g for 2 min, 80 μL of conditioned media was transferred to an empty 96-well plate (conditioned media (CM) plate). Then, 80 μL of AP reaction solution (10 mM p-nitrophenylphosphate (p-NPP), 120 mM Tris-HCl (pH 9.5), 40 mM NaCl, and 10 mM MgCl2) was dispensed into the cell plates and the CM plates. Absorbance at 405 nm of the plates was measured using a microplate reader (SpectraMax 340 PC384, Molecular Devices) before and after 1-h incubation at room temperature. Ligand-induced AP-TGFα release was calculated by subtracting spontaneous AP-TGFα release signal from ligand-induced AP-TGFα release signal. The AP-TGFα release signals were fitted to a four-parameter sigmoidal concentration–response curve, using the Prism 10 software (GraphPad Prism). For each replicate experiment, the pEC50 parameter (negative logarithmic values of EC50 values) of the individual GPR103 mutants were normalized to that of the wild-type GPR103 performed in parallel, and resulting ∆pEC50 values were used to denote ligand response activity of the mutants. […]
Exp. le vel: WT (1:5 0)Exp. le vel: WT (1:5 0)Exp. le vel: WT (1:5 0)Exp. le vel: WT (1:2 0)Exp. le vel: WT (1:2 0)Exp. le vel: WT (1:1 0) […]
L1 4N - t e r mA F2 5N - t e r mA I 2 6N - t e r mA Y 2 9N - t e r mA C 9 82 .5 7A T10 22 .6 1A Exp . l eve l: WT (1 :5)Exp . l evel : >WT (1 :1)Exp. le vel: WT (1:2 0)Exp. le vel: WT (1:2 0)Exp. le vel: WT (1:5 0)Exp . l eve l: WT (1 :1) […]
Exp. le vel: WT (1:1 0)Exp. le vel: WT (1:2 0) C 1 1 83 .2 5AExp. le vel: WT (1:5 0)Exp. le vel: WT (1:5 0)Exp. le vel: WT (1:2 0)Exp . l eve l: WT (1 :5) […]
Exp. le vel: WT (1:5 0)Exp. le vel: WT (1:1 0)Exp. le vel: WT (1:5 0) E203ECL2AExp . l evel : >WT (1 :1)Exp. le vel: WT (1:5 0)Exp. le vel: WT (1:5 0) […]
Exp . l eve l: WT (1 :1) F28Exp. le vel: WT (1:5 0) C 2 8 56 .4 7AExp. le vel: WT (1:2 0) WExp. le vel: WT (1:2 0) F28Exp. le vel: WT (1:5 0)Exp . l evel : >WT (1 :1) […]
Exp. le vel: WT (1:5 0)Exp. le vel: WT (1:5 0) C 3 2 77 .4 8AExp . l eve l: WT (1 :5)Exp . l evel : >WT (1 :1)Exp . l evel : >WT (1 :1) […]
Suppl eme nt ary Figure 1 | Mutational analysis of GPR103. […]
mutants. Data are presented as mean values ± SEM, normally n=3-5; dots), each performed in triplicate. b-d Cell-surface expression (b) and QRFP26-in-duced activation of GPR103 (c, d) were analyzed by the flow cytometry and the TGFα shedding assay, respectively. From the concentration–response curves (a), Emax (c) and ΔpEC50 (d) values relative to the wild type were calculated. Colors in the mutant bars indicate an expression level matching to that of titrated wild type. Statistical analyses were performed using the ordinary one-way ANOVA followed by Dunnett tests with the expression-matched […]

Read-outs that look alike come from different tables or passages of the source. No end group written: not given here.

Consider TSGPLGNLAEELNGYSRKKGGFSFRF-NH2 [QRFP26], for which the Emax reads like this: (Exp. #1) 91.33 % WT; (Exp. #2) 94.38 % WT; (Exp. #3) 115.19 % WT; (mean, read-out: Emax) 100%; (n = 3, read-out: Emax) 102 ± 6.1%. Under “n = 3”, the 50% effective concentration (EC50) was 93.3 nM.

In general, EC50 refers to the concentration giving half of the maximal effect.

The values are drawn from PMC11187126, “Structure and dynamics of the pyroglutamylated RF-amide peptide QRFP receptor GPR103” (Nature Communications, 2024).
